# Experimental data published in BindingDB's records for doi:10.1016/j.bmcl.2012.07.086 (Shandong Academy of Sciences, 2012).
# pIC50: −log10 of the molar value.
# Biological target: T1, Aminopeptidase N (Sus scrofa, UniProt P15145)
# T1 sequence (P15145 whole entry): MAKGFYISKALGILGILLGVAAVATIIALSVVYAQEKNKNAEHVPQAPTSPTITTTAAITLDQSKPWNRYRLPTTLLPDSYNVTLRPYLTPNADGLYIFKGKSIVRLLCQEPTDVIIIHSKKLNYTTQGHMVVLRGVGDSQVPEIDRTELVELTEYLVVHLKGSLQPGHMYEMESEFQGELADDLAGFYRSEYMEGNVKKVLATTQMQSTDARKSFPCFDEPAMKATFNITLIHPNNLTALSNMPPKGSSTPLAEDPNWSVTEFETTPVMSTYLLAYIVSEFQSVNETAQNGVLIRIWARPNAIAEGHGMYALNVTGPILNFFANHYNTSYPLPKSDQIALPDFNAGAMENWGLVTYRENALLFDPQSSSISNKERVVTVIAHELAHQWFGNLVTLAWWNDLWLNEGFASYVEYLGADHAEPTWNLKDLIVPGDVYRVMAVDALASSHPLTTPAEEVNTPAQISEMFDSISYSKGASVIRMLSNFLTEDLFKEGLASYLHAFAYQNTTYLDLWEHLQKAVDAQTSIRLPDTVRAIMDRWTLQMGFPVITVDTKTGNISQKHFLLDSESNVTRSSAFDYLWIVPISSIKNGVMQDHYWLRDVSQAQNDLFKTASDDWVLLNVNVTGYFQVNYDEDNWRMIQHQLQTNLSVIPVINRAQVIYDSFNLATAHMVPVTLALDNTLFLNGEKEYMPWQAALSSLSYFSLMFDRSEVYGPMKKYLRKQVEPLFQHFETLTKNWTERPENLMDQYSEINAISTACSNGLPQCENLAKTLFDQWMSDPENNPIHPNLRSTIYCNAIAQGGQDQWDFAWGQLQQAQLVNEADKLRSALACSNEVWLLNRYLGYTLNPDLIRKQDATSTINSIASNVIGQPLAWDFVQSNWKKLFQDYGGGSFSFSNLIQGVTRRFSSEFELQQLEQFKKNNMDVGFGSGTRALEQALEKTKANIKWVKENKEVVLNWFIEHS
# Experiment: Inhibition of porcine kidney microsome aminopeptidase using L-Leu-p-nitroanilide as substrate after 30 mins
row,Structure (SMILES),pIC50
1,Cc1cc(C/N=N/c2ccc([N+](=O)[O-])cc2[N+](=O)[O-])c(C)n1-c1ccc(S(N)(=O)=O)cc1,< 3.00
2,O=C1NC(=O)C(N=Nc2cc([N+](=O)[O-])ccc2O)C(=O)N1,< 3.00
